One series deals with Candida albicans. Kind of series: Effect on in vitro culture of Candida albicans for 24 hours. The format is cell-based. Conditions: Ac-B 125 microgram per ml; PD agar. The method, then: Candida albicans spores were grown in vitro on Potato dextrose [PD] agar plates without (control) and with Ac-B at a concentration of 125 microgram per ml.
Series [1] relates to Salmonella typhimurium TA100. Kind of series: Bacterial reverse mutation assay (MUTA-CHROMOPLATE kit). From the text: Ac-B was examined for its ability to produce mutations/revert mutations in a bacterial reverse mutation assay using amino acid-requiring strain of Salmonella typhimurium (S. typhimurium) TA100 and the result was compared with a known mutagen (Na-azide). A commercial kit (The MUTA-CHROMOPLATE) from M/s Environmental Biodetection Products Inc. Ontario, Canada, was used. Suspensions of bacterial cells were exposed to the test substance in the presence and in the absence of an exogenous metabolic activation system. After 5 days of incubation, revertant colonies were detected by the change of colour from blue to yellow on solvent control plates. All yellow, partially yellow or turbid wells were scored as positive, while all purple wells were scored as negative. Number of positive wells for each plate was recorded, their number was counted and compared to that of spontaneous revertant colonies. The “Background” (i.e. no test material added) plate was used as reference for the level of spontaneous or background mutation of the assay organism. The statistical difference was determined using a table provided with the kit.
Score of mutagenicity as per the set criteria of Muta-Chromoplate test kit.

Results on 1 substance are retold here after patent US8729034B2, “Pharmaceutical composition having virucidal and spermicidal activity” (priority 2007, dated 2014).

As for Acaciaside-B [Ac-B], in the series on Candida albicans, the “Number of Candida albicans colonies, presence vs absence of Ac-B” value is “no significant difference” and the “Sizes of individual Candida albicans colonies” value is “comparatively smaller”. The Overall mutagenicity result in series [1] (Ames Test) was “non-mutagenic”. Moreover, in series [1] (Background = 20, Blank = 0), the “No. of '+' wells (Muta-Chromoplate score)” value amounted to 18.
